From publication PMC8617681 (Pharmaceuticals, 2021)
Entries after “also recorded” stand apart in the source; their conditions may differ.

How the values were obtained:
[1] = 4 h pharmacokinetic pilot study in wild-type, Abcb1a/1b;Abcg2-/- and Slco1a/1b-/- mice; format: in vivo; settings: for abnormal external behavior (acute toxicity): 10 mg/kg oral
Method: (§1) Mice were housed and handled according to institutional guidelines complying with Dutch and EU legislation. All experimental animal protocols were evaluated and approved by the institutional animal care and use committee. Wild-type, Abcb1a/1b^-/-, Abcg2^-/-, Abcb1a/1b; Abcg2^-/-, Slco1a/1b^-/- male mice, and Cyp3a^-/- and Cyp3aXAV female mice, all of a >99% FVB genetic background, were used between 9 and 16 weeks of age. […] All experimental animal protocols (WP9450, 9669, 9760), including power calculations, designed under the nationally approved DEC/CCD project AVD301002016595, were evaluated and approved by the institutional animal care and use committee of The Netherlands Cancer Institute. […]
(§2) For the 4 h transporter experiments, tail-vein blood samples were collected at 0.125, 0.25, 0.5, 1, and 2 h time points after oral administration, respectively. For the CYP3A 8 h experiments, tail-vein blood sampling was performed at 0.25, 0.5, 1, 2, and 4 h, respectively. While for elacridar inhibition experiments, tail-vein blood samples were collected at 0.125, 0.25, 0.5, and 1 h time points after oral administration, respectively. Blood sample collection was performed using microvettes containing dipotassium EDTA. At the last time point in each experiment (2, 4 or 8 h), mice were anesthetized with 5% isoflurane and blood was collected by cardiac puncture. Blood samples were collected in Eppendorf tubes containing heparin as an anticoagulant. The mice were then sacrificed by cervical dislocation and brain, liver, kidney, lung, small intestine and testis were rapidly removed. Plasma was isolated from the blood by centrifugation at 9000× g for 6 min at 4 °C, and the plasma fraction was collected and stored at −30 °C until analysis. Organs were homogenized with 4% (w/v) bovine serum albumin and stored at −30 °C until analysis.
(§3) Pharmacokinetic parameters were calculated by noncompartmental methods using the PK solver software. The area under the plasma concentration–time curve (AUC) was calculated using the trapezoidal rule, without extrapolating to infinity. The peak plasma concentration (Cmax) and the time of maximum plasma concentration (Tmax) were estimated from the original (individual mouse) data. One-way analysis of variance (ANOVA) was used when multiple groups were compared and the Tukey post hoc correction was used to accommodate multiple testing. The two-sided unpaired Student’s t-test was used when treatments or differences between two specific groups were compared using the software GraphPad Prism 8 (GraphPad Software Inc., La Jolla, CA, USA). All the data were log-transformed before statistical tests were applied. Differences were considered statistically significant when p < 0.05. All data are presented as geometric mean ± SD.

[2] = 4 h main pharmacokinetic experiment in wild-type, Abcb1a/1b-/-, Abcg2-/- and Abcb1a/1b;Abcg2-/- mice; format: in vivo; settings: 10 mg/kg oral, 4 h main experiment; for Cmax / Tmax / concentration at 4 h / AUC(0-t): mouse; for Cmax / Tmax / AUC(0-t): plasma; for concentration at 4 h / AUC(0-t): male, po, 10 mg/kg; for AUC(0-t): read-out: AUC0–4h
Method: as §1, §2, §3

[3] = 8 h pharmacokinetic study in wild-type, Cyp3a-/- and Cyp3aXAV mice; settings: mouse, in vivo, po, 10 mg/kg; for concentration at 8 h / AUC(0-t) / Cmax / Tmax / SIC percentage of dose: female; for SIC percentage of dose: 8 h
Method: Many drugs and prodrugs are metabolized by CYP3A, which can therefore restrict their oral exposure.
as §1, §2, §3

[4] = male, FVB (Abcb1a/1b;Abcg2-/-), mouse, in vivo, po, 10 mg/kg, 4 h
[5] = male, FVB (Slco1a/1b-/-), mouse, in vivo, po, 10 mg/kg, 4 h
[6] = male, FVB background, Abcb1a/1b;Abcg2-/-, mouse, in vivo, po, 10 mg/kg
[7] = male, FVB background, Slco1a/1b-/-, mouse, in vivo, po, 10 mg/kg
[8] = male, FVB background, wild-type, mouse, in vivo, po, 10 mg/kg
[9] = FVB (Abcb1a/1b-/-), male Abcb1a/1b-/- mice
[10] = FVB (Abcb1a/1b;Abcg2-/-), male Abcb1a/1b;Abcg2-/- mice
[11] = FVB (Abcg2-/-), male Abcg2-/- mice
[12] = FVB (wild-type), male wild-type mice

With `COc1ccc(CN2C3CC2CN(c2ccc(-c4cc(OCC(C)(C)O)cn5ncc(C#N)c45)cn2)C3)cn1` [selpercatinib] the “abnormal external behavior (acute toxicity)” value (shortened to “abnormal external behavior”) ([1]; Abcb1a/1b;Abcg2-/- mice) was “did not observe any abnormal external behavior”, the “abnormal external behavior” value ([1]; Slco1a/1b-/- mice, 10 mg/kg) was “did not show any abnormal external behavior; also recorded: did not observe any abnormal external behavior” and the “CSIC (small intestine contents concentration)” value [1, 4] was 34,929 ± 16,659 ng/g. For the same compound, the Cliver [1, 4] was 19,077 ± 2696 ng/g, the concentration at 4 h ([1]; male, FVB (Abcb1a/1b;Abcg2-/-), mouse, in vivo, po, 10 mg/kg, CSIC (small intestine contents concentration)) was 34900 ng/g and the concentration at 4 h ([1]; male, FVB (Abcb1a/1b;Abcg2-/-), mouse, in vivo, po, 10 mg/kg, Cbrain) was 3450 ng/g. It also gave a concentration at 4 h ([1]; male, FVB (Abcb1a/1b;Abcg2-/-), mouse, in vivo, po, 10 mg/kg, Cliver) of 19100 ng/g, a concentration at 4 h ([1]; male, FVB (Abcb1a/1b;Abcg2-/-), mouse, in vivo, po, 10 mg/kg, Ctestis) of 5730 ng/g and a Cbrain [1, 5] of 278 ± 42 ng/g. For the same compound, the Cliver [1, 5] was 19,916 ± 3174 ng/g, the concentration at 4 h ([1]; male, FVB (Slco1a/1b-/-), mouse, in vivo, po, 10 mg/kg, Cbrain) was 278 ± 42 ng/g and the concentration at 4 h ([1]; male, FVB (Slco1a/1b-/-), mouse, in vivo, po, 10 mg/kg, Cliver) was 19900 ng/g. The concentration at 4 h ([1]; male, FVB (Slco1a/1b-/-), mouse, in vivo, po, 10 mg/kg, Ctestis) was 1120 ng/g, the Cliver ([1]; male, FVB (wild-type), mouse, in vivo, po, 10 mg/kg, 4 h) was 17,593 ± 3471 ng/g and the concentration at 4 h ([1]; male, FVB (wild-type), mouse, in vivo, po, 10 mg/kg, Cliver) was 17600 ng/g. For the same compound, the AUC(0-t) [1, 6] was 30200 ng·h/mL, the Cmax [1, 6] was 8580 ± 2160 ng/mL and the Tmax [1, 6] was 1.6 ± 1.2 h. The AUC(0-t) [1, 7] was 36200 ng·h/mL, the Cmax [1, 7] was 11600 ng/mL and the Tmax [1, 7] was 1.7 ± 0.52 h. The concentration at 4 h ([1]; male, FVB background, Slco1a/1b-/-, mouse, in vivo, po, 10 mg/kg, CSIC (small intestine contents concentration)) was 141000 ng/g, the AUC(0-t) [1, 8] was 26600 ng·h/mL and the Cmax [1, 8] was 7860 ± 1810 ng/mL. The Tmax [1, 8] was 1.8 ± 1.2 h, the concentration at 4 h ([1]; male, FVB background, wild-type, mouse, in vivo, po, 10 mg/kg, CSIC (small intestine contents concentration)) was 91100 ng/g and the concentration at 4 h ([1]; male, FVB background, wild-type, mouse, in vivo, po, 10 mg/kg, Cbrain) was 186 ± 23 ng/g. For the same compound, the concentration at 4 h ([1]; male, FVB background, wild-type, mouse, in vivo, po, 10 mg/kg, Ctestis) was 730 ± 103 ng/g, the Cmax [2, 9] was 10300 ng/mL and the Tmax [2, 9] was 1.8 ± 1.3 h. It also gave a Cmax [2, 10] of 11000 ng/mL, a Tmax [2, 10] of 1.5 ± 1.3 h and a Cmax [2, 11] of 11400 ng/mL. For the same compound, the Tmax [2, 11] was 1.4 ± 0.74 h, the Cmax [2, 12] was 6910 ± 761 ng/mL and the Tmax [2, 12] was 1.6 ± 1.4 h. The “SIC percentage of dose” value ([2]; male Abcb1a/1b-/- mice) was 1.1 ± 0.3%, the “SIC percentage of dose” value ([2]; male Abcb1a/1b;Abcg2-/- mice) was 0.69 ± 0.52 % and the “SIC percentage of dose” value ([2]; male Abcg2-/- mice) was 1.6 ± 0.7 %. For the same compound, the “SIC percentage of dose” value ([2]; male wild-type mice) was 2.3 ± 0.9%, the concentration at 4 h ([2]; FVB (Abcb1a/1b-/-), brain, male Abcb1a/1b-/- mice, read-out: Cbrain) was 2000 ± 233 ng/g and the concentration at 4 h ([2]; FVB (Abcb1a/1b;Abcg2-/-), brain, male Abcb1a/1b;Abcg2-/- mice, read-out: Cbrain) was 4260 ± 853 ng/g. The AUC(0-t) [2, 10] was 39000 ng·h/mL, the concentration at 4 h ([2]; FVB (Abcg2-/-), brain, male Abcg2-/- mice, read-out: Cbrain) was 418 ± 102 ng/g and the concentration at 4 h ([2]; FVB (wild-type), brain, male wild-type mice, read-out: Cbrain) was 420 ± 66 ng/g. The concentration at 4 h ([2]; FVB, liver, male Abcb1a/1b-/- mice, read-out: CLiver) was 34000 ng/g, the concentration at 4 h ([2]; FVB, liver, male Abcb1a/1b;Abcg2-/- mice, read-out: CLiver) was 23200 ng/g and the concentration at 4 h ([2]; FVB, liver, male Abcg2-/- mice, read-out: CLiver) was 19300 ng/g. It also gave a concentration at 4 h ([2]; FVB, liver, male wild-type mice, read-out: CLiver) of 25700 ng/g, an AUC(0-t) ([2]; FVB, male Abcb1a/1b-/- mice) of 37000 ng·h/mL and an AUC(0-t) ([2]; FVB, male Abcg2-/- mice) of 39100 ng·h/mL. For the same compound, the AUC(0-t) ([2]; FVB, male wild-type mice) was 23700 ng·h/mL, the concentration at 4 h ([2]; FVB, small intestine contents, male Abcb1a/1b-/- mice, read-out: CSIC (small intestine contents concentration)) was 69400 ng/g and the concentration at 4 h ([2]; FVB, small intestine contents, male Abcb1a/1b;Abcg2-/- mice, read-out: CSIC (small intestine contents concentration)) was 27400 ng/g. The concentration at 4 h ([2]; FVB, small intestine contents, male Abcg2-/- mice, read-out: CSIC (small intestine contents concentration)) was 91700 ng/g, the concentration at 4 h ([2]; FVB, small intestine contents, male wild-type mice, read-out: CSIC (small intestine contents concentration)) was 98100 ng/g and the concentration at 4 h ([2]; FVB, small intestine, male Abcb1a/1b-/- mice, read-out: CSI (small intestine tissue concentration)) was 17000 ng/g. It also gave a concentration at 4 h ([2]; FVB, small intestine, male Abcb1a/1b;Abcg2-/- mice, read-out: CSI (small intestine tissue concentration)) of 11600 ng/g, a concentration at 4 h ([2]; FVB, small intestine, male Abcg2-/- mice, read-out: CSI (small intestine tissue concentration)) of 13000 ng/g and a concentration at 4 h ([2]; FVB, small intestine, male wild-type mice, read-out: CSI (small intestine tissue concentration)) of 21600 ng/g. For the same compound, the concentration at 4 h ([2]; FVB, testis, male Abcb1a/1b-/- mice, read-out: Ctestis) was 3480 ± 634 ng/g, the concentration at 4 h ([2]; FVB, testis, male Abcb1a/1b;Abcg2-/- mice, read-out: Ctestis) was 8330 ± 935 ng/g and the concentration at 4 h ([2]; FVB, testis, male Abcg2-/- mice, read-out: Ctestis) was 1050 ± 192 ng/g. It also gave a concentration at 4 h ([2]; FVB, testis, male wild-type mice, read-out: Ctestis) of 811 ± 148 ng/g, a concentration at 8 h ([3]; Cyp3a-/- (>99% FVB genetic background), CLiver) of 7900 ± 1270 ng/g and a concentration at 8 h ([3]; Cyp3a-/- (>99% FVB genetic background), CSI (small intestine tissue concentration)) of 6380 ± 930 ng/g. It also gave a concentration at 8 h ([3]; Cyp3a-/- (>99% FVB genetic background), Cbrain) of 86.2 ± 24.2 ng/g, a concentration at 8 h ([3]; Cyp3aXAV (>99% FVB genetic background), CLiver) of 4390 ± 755 ng/g and a concentration at 8 h ([3]; Cyp3aXAV (>99% FVB genetic background), CSI (small intestine tissue concentration)) of 5030 ± 347 ng/g. It also gave an AUC(0-t) ([3]; FVB, Cyp3a-/-) of 72200 ng·h/mL, a Cmax ([3]; FVB, Cyp3a-/-) of 12300 ng/mL and a Tmax ([3]; FVB, Cyp3a-/-) of 1.4 ± 1.3 h. For the same compound, the “SIC percentage of dose” value ([3]; FVB, Cyp3a-/-) was 1.4 ± 0.6 %, the concentration at 8 h ([3]; FVB, Cyp3a-/-, CSIC (small intestine contents concentration)) was 44900 ng/g and the AUC(0-t) ([3]; FVB, wild-type) was 52300 ng·h/mL. The Cmax ([3]; FVB, wild-type) was 8560 ± 1300 ng/mL, the Tmax ([3]; FVB, wild-type) was 1.5 ± 1.3 h and the “SIC percentage of dose” value ([3]; FVB, wild-type) was 2.5 ± 0.9%. For the same compound, the concentration at 8 h ([3]; FVB, wild-type, CSIC (small intestine contents concentration)) was 83900 ng/g, the concentration at 8 h ([3]; FVB, wild-type, Cbrain) was 82.4 ± 16.8 ng/g and the AUC(0-t) [3] was 45800 ng·h/mL. For the same compound, the Cmax [3] was 9480 ± 548 ng/mL, the Tmax [3] was 0.29 ± 0.1 h and the “SIC percentage of dose” value [3] was 1.5 ± 0.5%. For the same compound, the concentration at 8 h ([3]; CSIC (small intestine contents concentration)) was 48500 ng/g, the concentration at 8 h ([3]; Cbrain) was 51 ± 15.2 ng/g and the concentration at 8 h ([3]; wild-type (>99% FVB genetic background), CLiver) was 8260 ± 1620 ng/g. The concentration at 8 h ([3]; wild-type (>99% FVB genetic background), CSI (small intestine tissue concentration)) was 7300 ± 1120 ng/g and the “abnormal external behavior” value [3] was “did not observe any abnormal external behavior”.
